Source: patent US8414660B2, “Haloferax volcanii laccase and variants and fragments thereof” (University of Florida Research Foundation, Inc., priority 2009, dated 2013)
Values joined by “and” are separate entries in the source; they are usually repeats but may differ in a detail not shown here. Identical values can stand only once. Like-named read-outs stand apart in the source and are kept apart here.

Columns and labels:
[1] = target: T1, LccA isolated from Hfx. volcanii SB01 (Haloferax volcanii, UniProt D4GPK6); experiment: biochemical; details: for Inhibition of observed LccA activity: 0.1 to 1 mM; for inhibition at 10000 µM: read-out: Inhibition / reduction in LccA activity
T1 construct: made in house; host or cells: Haloferax volcanii SB01 (H26 carrying plasmid pJAM822), secreted into culture broth
T1 sequence (D4GPK6 32-579): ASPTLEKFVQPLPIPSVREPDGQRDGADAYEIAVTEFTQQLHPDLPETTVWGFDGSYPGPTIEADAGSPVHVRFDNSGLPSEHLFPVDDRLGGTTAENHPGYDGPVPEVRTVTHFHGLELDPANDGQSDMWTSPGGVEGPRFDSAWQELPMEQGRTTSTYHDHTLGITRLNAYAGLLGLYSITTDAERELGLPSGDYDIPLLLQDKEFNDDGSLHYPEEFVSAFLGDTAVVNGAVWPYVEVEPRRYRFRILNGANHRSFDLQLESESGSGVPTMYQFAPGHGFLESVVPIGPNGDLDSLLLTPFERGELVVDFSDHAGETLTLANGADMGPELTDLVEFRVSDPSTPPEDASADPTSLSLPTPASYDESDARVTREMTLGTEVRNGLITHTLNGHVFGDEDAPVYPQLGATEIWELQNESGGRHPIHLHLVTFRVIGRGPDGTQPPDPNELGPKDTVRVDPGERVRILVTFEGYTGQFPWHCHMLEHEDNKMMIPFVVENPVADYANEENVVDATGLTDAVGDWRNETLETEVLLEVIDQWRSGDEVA

[2] = literature; cited from earlier work
[3] = Laccase activity assay, oxidation of SGZ (syringaldazine)
Method: LccA (51 μg·ml^−1) activity was assayed at different temperatures (22° to 70° C.) in T buffer with 185 mM NaCl using SGZ (1 mM) as the substrate. […] LccA activity was assayed with SGZ (●) from pH 6 to 11 and with ABTS (◯) from pH 3 to 8 at 45° C. using following buffers: 100 mM sodium acetate for pH 3 to 6, 25 mM Tris-HCl for pH 7 to 10, and 25 mM glycine-NaOH for pH 11. Activity is expressed as percent relative to oxidation of ABTS at pH 6. […] Purified enzyme (50.6 μg·ml^−1) was pre-incubated in T buffer supplemented with 185 mM NaCl at temperatures from 37° to 70° C. for up to 60 h, as indicated. […] Activity is presented as percent relative to incubation on ice (37° C. (●), 45° C. (▪), 50° C. (▴), 55° C. (♦), 60° C. (◯), 65° C. (□) and 70° C. (Δ)); FIG. 6E-Salt tolerance of LccA protein. Purified enzyme (16.5 μg·ml^−1) was pre-incubated for 30 min in T buffer at pH 8.4 supplemented with different concentrations of NaCl (0 to 1.4 M) as indicated. Samples were diluted to a final concentration 4.12 μg·ml^−1 protein and 185 mM NaCl in T buffer and assayed for SGZ oxidizing activity under standard conditions. Residual activity was calculated as percent relative to incubation at 185 mM NaCl. […] Enzyme (7.5 μg·ml^−1) was incubated in T buffer with 185 mM NaCl in the presence and absence of 25% (v/v) solvent (DMSO, DMF, ethanol and methanol) at room temperature for 90 min (white bar), 3 h (grey bar) and 24 h (black bar). […] Activity is calculated as percent relative to incubation without solvent.
Enzyme activity was determined by change in absorbance, in triplicate, by UV/Visible-spectroscopy using a BioTek Synergy HT multi-detection microplate reader with a 96-well plate. Oxidation of substrate was monitored by absorbance increase (ABTS at 420 nm with ε=36,000 M^−1 cm^−1; SGZ at 526 nm with ε=65,000 M^−1 cm^−1; DMP at 468 nm with ε=49,000 M^−1 cm^−1; guaiacol at 436 nm with ε=26,600 M^−1 cm^−1; ferrous ammonium sulfate at 315 nm with ε=2,200 M^−1 cm^−1) or decrease (bilirubin at 440 nm with ε=56,300 M^−1 cm^−1). Standard assay conditions were 185 mM NaCl at 45° C. with the following buffers and substrate concentrations: 100 mM sodium acetate buffer at pH 6.0 for ABTS (at 5 mM), DMP (at 2 mM) and guaiacol (at 5 mM); 25 mM Tris-HCl buffer at pH 8.4 for SGZ (at 1 mM); and 200 mM Tris-HCl buffer at pH 8.4 for bilirubin (0.45 mM). Copper sulfate (1 mM) was included for assay of DMP oxidation. Oxidation of ferrous ammonium sulphate (1 mM) was monitored at 315 nm (ε=2,200 M^−1 cm^−1) with and without salt (185 mM NaCl) in 100 mM MES (morpholineethanesulfonic acid) buffer at pH 5 as well as 25 mM Tris-HCl buffer at pH 7.0 and 8.4. One unit of enzyme activity is defined as the amount of enzyme that oxidizes 1 μmol of substrate per min at standard conditions. […] Kinetic parameters (Km, Vmax, and kcat) were determined using the Michaelis-Menten equation. […] All assays and protein purifications were performed at least in triplicate.
To further evaluate the catalytic properties of LccA, the temperature, pH and salt optima of the purified enzyme were determined using SGZ and/or ABTS as substrates.

[4] = comparator laccase-like enzymes, literature, cited from earlier work
[5] = comparator laccase-like enzymes, literature, cited from earlier work; remark: listed apart in the source
[6] = compound 0.1 mM, 10 min at 45° C.
[7] = compound 1 mM, 10 min at 45° C.
[8] = compound 10 mM, 10 min at 45° C.

Molecule: O[C@@H](CS)[C@@H](O)CS (racemic) [DL-Dithiothretol]
- Inhibition of observed LccA activity [1]: strong inhibitors
- Relative Activity of LccA ([1]; compound 0.01 mM, 10 min at 45° C.): 90.5 ± 5.5%
- Relative Activity of LccA [1, 6]: u.d.
- Relative Activity of LccA [1, 7]: u.d.

Molecule: c1cnc2c(c1)ccc1cccnc12 [1,10-Phenanthroline]
- inhibition at 10000 µM ([1]; 10 mM): 90%
- Relative Activity of LccA [1, 7]: 85.3 ± 3.4%
- Relative Activity of LccA [1, 8]: 10.9 ± 3.9%

Molecule: c1ccc(-c2ccccn2)nc1 [2,2-Dipyridyl]
- Inhibition / reduction in LccA activity ([1]; 10 mM): 25%
- Relative Activity of LccA [1, 7]: 86.6 ± 3.3%
- Relative Activity of LccA [1, 8]: 75.2 ± 2.3%

Molecule: O=C(O)CN(CCN(CC(=O)O)CC(=O)O)CC(=O)O [EDTA]
- Inhibitory activity toward LccA [1]: no inhibitory activity
- Relative Activity of LccA [1]: 100.6 ± 1.8% and 106.3 ± 5.8% and 123.6 ± 3.2% and 123.7 ± 3.0%

Molecule: N[C@@H](CS)C(=O)O [L-Cysteine]
- Inhibition of observed LccA activity [1]: strong inhibitors
- Relative Activity of LccA [1, 6]: 83.0 ± 3.7%
- Relative Activity of LccA [1, 7]: u.d.^c

Molecule: NC(N)=S [Thiourea]
- inhibition at 10000 µM ([1]; 10 mM): 90%
- Relative Activity of LccA [1, 7]: 96.5 ± 3.9%
- Relative Activity of LccA [1, 8]: 9.5 ± 1.3%

Molecule: McoA [reference compound]
- Temperature optimum [2]: 70 °C

B1: LccA-StrepII: LccA with a C-terminal StrepII tag (-WSHPQFEK), purified from Hfx. volcanii SB01 (protein, UniProt D4GPK6 32-579, looked up)
Laccase: T1 sequence (D4GPK6 32-579)
modifications: C-terminal StrepII tag
- Specific activity lower than US02 purified LccA ([3]; SGZ oxidation): over 20 fold
- Specific activity, SGZ oxidation ([3]; purified from culture broth of Hfx. volcanii SB01 (C-terminal StrepII tag), final MonoQ 10/10 pH 8.4): 1.3 U·mg^−1

B2: CotA, Bacillus subtilis: Bacillus subtilis spore coat protein A with laccase activity (Martins et al., 2002) (protein, UniProt P07788 1-513, looked up)
Laccase: MTLEKFVDALPIPDTLKPVQQSKEKTYYEVTMEECTHQLHRDLPPTRLWGYNGLFPGPTIEVKRNENVYVKWMNNLPSTHFLPIDHTIHHSDSQHEEPEVKTVVHLHGGVTPDDSDGYPEAWFSKDFEQTGPYFKREVYHYPNQQRGAILWYHDHAMALTRLNVYAGLVGAYIIHDPKEKRLKLPSDEYDVPLLITDRTINEDGSLFYPSAPENPSPSLPNPSIVPAFCGETILVNGKVWPYLEVEPRKYRFRVINASNTRTYNLSLDNGGDFIQIGSDGGLLPRSVKLNSFSLAPAERYDIIIDFTAYEGESIILANSAGCGGDVNPETDANIMQFRVTKPLAQKDESRKPKYLASYPSVQHERIQNIRTLKLAGTQDEYGRPVLLLNNKRWHDPVTETPKVGTTEIWSIINPTRGTHPIHLHLVSFRVLDRRPFDIARYQESGELSYTGPAVPPPPSEKGWKDTIQAHAGEVLRIAATFGPYSGRYVWHCHILEHEDYDMMRPMDITDPHK
- Temperature optimum [2]: 75 °C
- kcat, SGZ [4]: 3.7 s⁻¹
- Km ([4]; read-out: Km, SGZ): 26 µM
- kcat, ABTS [5]: 16.8 s⁻¹
- Km ([5]; read-out: Km, ABTS): 106 µM
